# Source: patent US20200288710A1, “SUBSTITUTED SULPHONAMIDES FOR CONTROLLING ANIMAL PESTS” (BAYER CROPSCIENCE AKTIENGESELLSCHAFT, priority 2016, published 2020)
# Experiments:
# Assay type in all cases: in vivo
# Meloidogyne incognita = Meloidogyne incognita test; settings: 336 h, lettuce, after 14 days, read-out: nematicidal efficacy (formation of galls)
# In short: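 Gall formation on lettuce roots scored after 14 days: 0% means gall count equals untreated control, 100% means none. Sand vessels held the compound (acetone concentrate diluted in water), southern root-knot nematode egg/larvae suspension and lettuce seeds.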
# Myzus persicae [1] = experiment: Myzus persicae spray test (Chinese cabbage leaf discs); settings: foliar, 120 h, 500 g/ha, after 5-6 days, read-out: efficacy
# In short: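 Formulated compound in acetone/dimethylformamide, diluted in water with 1000 ppm emulsifier, was sprayed onto Brassica pekinensis leaf discs carrying mixed-stage Myzus persicae. Percent mortality was read 5-6 days later (0% = no aphids killed, 100% = all killed).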
# Myzus persicae [2] = experiment: Myzus persicae oral test; settings: 120 h, 20 ppm, oral uptake, after 5 days, read-out: efficacy
# In short: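 Aphids of mixed ages imbibe, through parafilm, compound solution (acetone stock, water-diluted) combined with sugar-supplemented IPL41 medium to 200 μl. Efficacy read at day 5 as percent killed, 0% meaning no deaths.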
SMILES,pest or weed control at 20 ppm (Meloidogyne incognita),pest or weed control at 500 g/ha (Myzus persicae [1]),pest or weed control at 20 ppm (Myzus persicae [2])
COc1ccc(Cl)c(S(=O)(=O)NC(=O)c2cn(C)c(-c3ncccc3F)n2)c1 [Example 514],90%,100%,100%
Cc1cc(S(=O)(=O)NC(=O)c2cn(C)c(-c3c(F)cccc3F)n2)c(C)s1 [Example 182],100%,90%,100%
Cn1cc(C(=O)NS(=O)(=O)c2ccccc2)nc1-c1c(Cl)cccc1Cl [Example 44],100%,90%,90%
Cc1[nH]c(-c2ccc(Cl)cc2)nc1C(=O)NS(=O)(=O)C(C)C [Example 235],90%,100%,100%
Cn1cc(C(=O)NS(=O)(=O)Cc2ccccc2Cl)nc1-c1ccccc1Cl [Example 62],90%,90%,100%
Cn1nc(C(=O)NS(=O)(=O)c2c(Cl)cccc2Cl)nc1-c1c(F)cccc1F [Example 13],90%,100%,100%
Cn1cc(C(=O)NS(=O)(=O)c2c(Cl)cccc2Cl)nc1-c1ncccc1F [Example 594],90%,90%,100%
Cn1cc(C(=O)NS(=O)(=O)c2ccccc2Cl)nc1-c1cccc(Cl)c1Cl [Example 513],100%,100%,100%
Cn1cc(C(=O)NS(=O)(=O)c2c(F)cccc2Cl)nc1-c1c(F)cccc1F [Example 431],90%,90%,100%
Cc1ccsc1S(=O)(=O)NC(=O)c1cn(C)c(-c2c(F)cccc2F)n1 [Example 184],100%,90%,100%
Cc1[nH]c(-c2ccccc2Cl)nc1C(=O)NS(=O)(=O)c1ccccc1Cl [Example 238],100%,100%,100%
Cn1cc(C(=O)NS(=O)(=O)c2ccc(Cl)cc2)nc1-c1c(F)cccc1Cl [Example 114],100%,90%,100%
Cn1cc(C(=O)NS(=O)(=O)c2ccccc2Br)nc1-c1c(F)cccc1F [Example 119],90%,100%,100%
CCCc1ccccc1S(=O)(=O)NC(=O)c1cn(C)c(-c2c(F)cccc2F)n1 [Example 403],90%,100%,100%
COc1ccc(Cl)c(S(=O)(=O)NC(=O)c2cn(C)c(-c3cccc(Cl)c3Cl)n2)c1 [Example 554],90%,90%,100%
Cn1cc(C(=O)NS(=O)(=O)c2ccc(Cl)cc2)nc1-c1ccccc1F [Example 51],100%,90%,90%
CCc1ccccc1S(=O)(=O)NC(=O)c1cc(OC)n(-c2ccccc2Cl)n1 [Example 281],100%,90%,100%
Cc1ccccc1S(=O)(=O)NC(=O)c1cn(C)c(-c2cc(F)ccc2F)n1 [Example 520],100%,90%,100%
Cc1cc(F)ccc1S(=O)(=O)NC(=O)c1cn(C)c(-c2c(F)cccc2F)n1 [Example 444],100%,90%,100%
Cn1nc(C(=O)NS(=O)(=O)c2ccccc2Br)nc1-c1c(F)cccc1F [Example 158],90%,100%,100%
COc1ccc(Br)cc1S(=O)(=O)NC(=O)c1cn(C)c(-c2c(F)cccc2Cl)n1 [Example 156],90%,100%,100%
Cc1ccccc1-c1nc(C(=O)NS(=O)(=O)c2ccccc2C)cn1C [Example 29],90%,100%,100%
O=C(NS(=O)(=O)c1c(Cl)cccc1Cl)c1cc(-c2ncccc2Cl)n(-c2ccccc2Cl)n1 [Example 266],90%,90%,100%
